Key:
[1] = target: T1, F508delCFTR (Homo sapiens, UniProt P13569, DEL508-508); assay: Cell Surface Expression-Horse Radish Peroxidase (CSE-HRP) assay, test compound with co-corrector; format: cell-based; settings: with 2 μM co-corrector; for Maximum % activity (with co-corrector): maximum at any tested concentration, normalized to positive control;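 as to Maximum % activity (with co-corrector): percent of 2 µM positive control corrector over DMSO; co-corrector is that same compound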
T1 construct: expressed in transfected cells; host or cells: CFBE41o- human lung-derived epithelial cells (CFBE41o-F508delCFTR-HRP), doxycycline-inducible
T1 sequence (P13569 with tags, fused parts or gaps DEL508-508): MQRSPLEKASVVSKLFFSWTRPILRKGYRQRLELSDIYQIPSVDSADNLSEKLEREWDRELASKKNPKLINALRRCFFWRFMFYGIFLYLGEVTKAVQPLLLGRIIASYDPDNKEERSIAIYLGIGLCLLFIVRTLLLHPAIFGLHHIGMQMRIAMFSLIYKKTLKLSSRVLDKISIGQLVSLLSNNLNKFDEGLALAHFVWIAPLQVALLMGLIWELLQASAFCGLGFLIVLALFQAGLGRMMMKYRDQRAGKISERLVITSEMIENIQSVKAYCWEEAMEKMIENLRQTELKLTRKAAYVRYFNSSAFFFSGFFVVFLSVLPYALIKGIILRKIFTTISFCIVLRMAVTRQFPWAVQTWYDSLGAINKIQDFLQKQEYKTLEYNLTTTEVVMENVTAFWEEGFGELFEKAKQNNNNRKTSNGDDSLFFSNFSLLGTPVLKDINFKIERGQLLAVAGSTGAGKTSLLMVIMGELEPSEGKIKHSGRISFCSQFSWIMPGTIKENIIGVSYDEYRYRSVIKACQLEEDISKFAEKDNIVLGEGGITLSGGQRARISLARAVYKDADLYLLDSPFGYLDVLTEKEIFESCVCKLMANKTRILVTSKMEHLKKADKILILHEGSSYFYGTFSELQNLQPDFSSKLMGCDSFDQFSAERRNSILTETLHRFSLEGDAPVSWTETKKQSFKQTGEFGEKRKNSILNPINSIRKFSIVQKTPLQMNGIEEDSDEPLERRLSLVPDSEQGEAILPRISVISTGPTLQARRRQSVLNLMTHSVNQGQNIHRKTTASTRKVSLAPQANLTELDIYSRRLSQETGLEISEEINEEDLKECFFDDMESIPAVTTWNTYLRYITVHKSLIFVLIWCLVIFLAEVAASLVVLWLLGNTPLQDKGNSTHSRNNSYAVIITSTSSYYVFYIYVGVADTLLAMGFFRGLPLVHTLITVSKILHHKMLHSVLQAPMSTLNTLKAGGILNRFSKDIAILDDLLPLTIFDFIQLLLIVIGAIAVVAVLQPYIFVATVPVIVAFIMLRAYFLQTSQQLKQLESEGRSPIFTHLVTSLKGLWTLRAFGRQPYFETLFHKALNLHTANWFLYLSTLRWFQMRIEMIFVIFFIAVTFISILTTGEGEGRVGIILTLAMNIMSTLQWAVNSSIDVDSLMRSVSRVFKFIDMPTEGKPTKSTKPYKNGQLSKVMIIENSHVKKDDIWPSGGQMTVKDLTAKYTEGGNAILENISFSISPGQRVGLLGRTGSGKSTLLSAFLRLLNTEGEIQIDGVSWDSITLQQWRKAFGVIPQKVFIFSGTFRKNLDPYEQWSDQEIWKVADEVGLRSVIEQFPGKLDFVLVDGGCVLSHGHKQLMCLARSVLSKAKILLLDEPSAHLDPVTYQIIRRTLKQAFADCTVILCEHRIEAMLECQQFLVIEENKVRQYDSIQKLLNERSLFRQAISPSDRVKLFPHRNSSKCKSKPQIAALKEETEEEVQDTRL
Method in brief: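 CFBE41o- cells expressing F508delCFTR with HRP in the fourth exofacial loop, induced with 0.5 μg/mL doxycycline for 72 h, then treated 18-24 h at 33° C. with compound (8 points, top 20 μM, 3-fold) plus 2 μM co-corrector. Surface HRP read by luminol luminescence; activity normalised to positive control, EC50 from variable-slope sigmoidal fit.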

[2] = target: T1, F508delCFTR; assay: Cell Surface Expression-Horse Radish Peroxidase (CSE-HRP) assay, test compound without co-corrector; format: cell-based; settings: for Emax: maximum at any tested concentration, normalized to positive control, without co-corrector; for EC50: test compound without co-corrector;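 as to Emax: percent of on-plate 2 µM positive control corrector response over DMSO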
Method in brief: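 CFBE41o- cells expressing F508delCFTR with HRP in the fourth exofacial loop, induced with 0.5 μg/mL doxycycline for 72 h at 37° C, then exposed to compound alone for 18-24 h at 33° C, 8-point 3-fold series from 20 μM. Surface HRP read by luminol luminescence, normalized to positive corrector control versus DMSO; EC50 from variable-slope sigmoidal fit of three replicate plates.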

SMILES	Maximum % activity (with co-corrector) [1]	EC50 [1] [µM]	Emax [2] [%]	EC50 [2] [µM]
CCC1(C(=O)NS(=O)(=O)c2ccccc2Oc2ccccc2)CCc2c(Cl)cccc21 (stereo not shown) [II-59]	++ (≥150 and <350)	< 3	< 50	< 3
CCC1(C(=O)NS(=O)(=O)c2ccccc2OC(F)(F)F)CCc2c(Cl)cccc21 (stereo not shown) [II-60]	+ (<150)	≥ 10	< 50	≥ 10
CCC1(C(=O)NS(=O)(=O)c2ccccc2OC(F)F)CCc2c(Cl)cccc21 (stereo not shown) [II-61]	+ (<150)	≥ 10	< 50	≥ 10
CCC1(C(=O)NS(=O)(=O)c2cc(C)ccc2C)CCc2c(Cl)cccc21 (stereo not shown) [II-62]	+ (<150)	≥ 10	< 50	≥ 10
CCC1(C(=O)NS(=O)(=O)c2ccccc2OCCOC)CCc2c(Cl)cccc21 (stereo not shown) [II-63]	++ (≥150 and <350)	< 3	< 50	< 3
CCC1(C(=O)NS(=O)(=O)c2ccccc2-c2ccccc2)CCc2c(Cl)cccc21 (stereo not shown) [II-64]	++ (≥150 and <350)	< 3	< 50	< 3
CCC1(C(=O)NS(=O)(=O)c2ccc3ccccc3c2)CCc2c(Cl)cccc21 (stereo not shown) [II-65]	++ (≥150 and <350)	3 to 10	< 50	3 to 10
CCC1(C(=O)NS(=O)(=O)c2ccccc2)CCc2c(Cl)cccc21 (stereo not shown) [II-66]	++ (≥150 and <350)	< 3	50 to 150	< 3
CCC1(C(=O)NS(=O)(=O)c2cccc3nsnc23)CCc2c(Cl)cccc21 (stereo not shown) [II-67]	+ (<150)	≥ 10	< 50	≥ 10
O=C(NS(=O)(=O)c1cccc2ccccc12)C1CCc2ccccc21 (stereo not shown) [II-68]	++ (≥150 and <350)	< 3	< 50	3 to 10
O=C(NS(=O)(=O)c1cccc2ccccc12)C1(CC2CCOC2)CCc2c(Cl)cccc21 (stereo not shown) [II-69]	+++ (≥350)	< 3	50 to 150	< 3
O=C(NS(=O)(=O)c1cccc2ccccc12)C1(CCn2cccn2)CCc2c(Cl)cccc21 (stereo not shown) [II-70]	++ (≥150 and <350)	< 3	50 to 150	< 3
COc1cc(CC2(C(=O)NS(=O)(=O)c3cccc4ccccc34)CCc3c(Cl)cccc32)ccn1 (stereo not shown) [II-72]	++ (≥150 and <350)	< 3	50 to 150	< 3
CCC1(C(=O)NS(=O)(=O)c2cccc3c2OCCO3)CCc2c(Cl)cccc21 (stereo not shown) [II-74]	+ (<150)	≥ 10	< 50	≥ 10
O=C(NS(=O)(=O)c1cccc2ccccc12)C1CCc2c(Br)cccc21 (stereo not shown) [II-75]	+++ (≥350)	< 3	≥ 150	3 to 10
CCC1(C(=O)NS(=O)(=O)c2ccc(Br)c3ccccc23)CCc2c(Cl)cccc21 (stereo not shown) [II-76]	++ (≥150 and <350)	< 3	< 50	< 3
CCC1(C(=O)NS(=O)(=O)c2ccc(F)c3ccccc23)CCc2c(Cl)cccc21 (stereo not shown) [II-77]	++ (≥150 and <350)	< 3	< 50	< 3
CCC1(C(=O)NS(=O)(=O)c2cccc3c(Br)cccc23)CCc2c(Cl)cccc21 (stereo not shown) [II-78]	+++ (≥350)	< 3	50 to 150	< 3
CCC1(C(=O)NS(=O)(=O)c2cccc3c2CCCC3)CCc2c(Cl)cccc21 (stereo not shown) [II-79]	++ (≥150 and <350)	< 3	50 to 150	< 3
CCC1(C(=O)NS(=O)(=O)c2ccc(C3CCC3)c3ccccc23)CCc2c(C3CCC3)cccc21 (stereo not shown) [II-82]	++ (≥150 and <350)	3 to 10	< 50	≥ 10
CCC1(C(=O)NS(=O)(=O)c2cccc3c(C4CCC4)cccc23)CCc2c(C3CCC3)cccc21 (stereo not shown) [II-83]	++ (≥150 and <350)	3 to 10	50 to 150	3 to 10
O=C(NS(=O)(=O)c1cccc2ccccc12)C1CCCc2c(OCC3CCCCC3)ccc(Br)c21 (stereo not shown) [II-84]	++ (≥150 and <350)	3 to 10	50 to 150	3 to 10

SMILES	Maximum % activity (with co-corrector) [1]	EC50 [1] [µM]	Emax [2] [%]	EC50 [2] [µM]
COc1cccc(COc2ccc(Br)c3c2CCCC3C(=O)NS(=O)(=O)c2cccc3ccccc23)c1 (stereo not shown) [II-85]	++ (≥150 and <350)	3 to 10	< 50	3 to 10
COc1cccc(COc2ccc(Br)c3c2CCCC3C(=O)N(Cc2cccc(OC)c2)S(=O)(=O)c2cccc3ccccc23)c1 (stereo not shown) [II-86]	++ (≥150 and <350)	3 to 10	< 50	≥ 10
CCOC(=O)COc1ccc(Br)c2c1CCCC2C(=O)NS(=O)(=O)c1cccc2ccccc12 (stereo not shown) [II-87]	++ (≥150 and <350)	< 3	< 50	< 3
O=C(NS(=O)(=O)c1cccc2ccccc12)C1CCCc2c(OC3CCCC3)ccc(Br)c21 (stereo not shown) [II-88]	+++ (≥350)	< 3	50 to 150	3 to 10
O=C(NS(=O)(=O)c1cccc2ccccc12)C1CCCc2c(OCc3ccccc3)ccc(Br)c21 (stereo not shown) [II-89]	++ (≥150 and <350)	3 to 10	50 to 150	3 to 10
O=C(C1CCCc2c(OCc3ccccc3)ccc(Br)c21)N(Cc1ccccc1)S(=O)(=O)c1cccc2ccccc12 (stereo not shown) [II-90]	+ (<150)	≥ 10	< 50	≥ 10
O=C(NS(=O)(=O)c1cccc2ccccc12)C1CCCc2c(OC3COC3)ccc(Br)c21 (stereo not shown) [II-91]	+++ (≥350)	< 3	50 to 150	3 to 10
O=C(NS(=O)(=O)c1cccc2ccccc12)C1CCCc2c(OC3CCOCC3)ccc(Br)c21 (stereo not shown) [II-92]	++ (≥150 and <350)	< 3	< 50	3 to 10
CC(C)(O)COc1ccc(Br)c2c1CCCC2C(=O)NS(=O)(=O)c1cccc2ccccc12 (stereo not shown) [II-93]	+ (<150)	< 3	< 50	≥ 10
COc1cc2c(c(OC)c1)C(C(=O)NS(=O)(=O)c1cccc3ccccc13)CCC2 (stereo not shown) [II-94]	+++ (≥350)	< 3	≥ 150	3 to 10
COc1ccc(/C=C/c2ccccc2)c2c1CCCC2C(=O)NS(=O)(=O)c1cccc2ccccc12 (stereo not shown) [II-96]	+++ (≥350)	< 3	≥ 150	< 3
COc1ccc(-c2cccc3c2OC(F)(F)O3)c2c1CCCC2C(=O)NS(=O)(=O)c1cccc2ccccc12 (stereo not shown) [II-97]	+++ (≥350)	< 3	≥ 150	< 3
COc1ccc(-c2ccc(C)cc2F)c2c1CCCC2C(=O)NS(=O)(=O)c1cccc2ccccc12 (stereo not shown) [II-98]	+++ (≥350)	< 3	≥ 150	< 3
COc1ccc(-c2ccccc2Oc2ccccc2)c2c1CCCC2C(=O)NS(=O)(=O)c1cccc2ccccc12 (stereo not shown) [II-99]	+++ (≥350)	< 3	≥ 150	< 3
CCC1(C(=O)NS(=O)(=O)c2cccc(Br)c2C)CCc2c(Cl)cccc21 (stereo not shown) [II-100]	+++ (≥350)	3 to 10	50 to 150	3 to 10
CCC1(C(=O)NS(=O)(=O)c2cccc(F)c2C)CCc2c(Cl)cccc21 (stereo not shown) [II-101]	++ (≥150 and <350)	< 3	< 50	< 3
CCC1(C(=O)NS(=O)(=O)c2ccccc2COC)CCc2c(Cl)cccc21 (stereo not shown) [II-102]	++ (≥150 and <350)	< 3	< 50	3 to 10
CCC1(C(=O)NS(=O)(=O)c2cccc(F)c2F)CCc2c(Cl)cccc21 (stereo not shown) [II-103]	+ (<150)	< 3	< 50	≥ 10
CCC1(C(=O)NS(=O)(=O)c2ccccc2OCC(F)F)CCc2c(Cl)cccc21 (stereo not shown) [II-104]	++ (≥150 and <350)	< 3	< 50	< 3
CCC1(C(=O)NS(=O)(=O)c2cccc3nccnc23)CCc2c(Cl)cccc21 (stereo not shown) [II-105]	+ (<150)	< 3	< 50	≥ 10
CCC1(C(=O)NS(=O)(=O)c2cccc(Cl)c2F)CCc2c(Cl)cccc21 (stereo not shown) [II-106]	++ (≥150 and <350)	< 3	< 50	≥ 10

From patent US20180244611A1, “Modulators of the Cystic Fibrosis Transmembrane Conductance Regulator Protein and Methods of Use” (AbbVie S.à.r.l., priority 2017, published 2018)
